Results as given in ChEMBL document CHEMBL3046338, “Solid-Supported Parallel Synthesis of Hydroxybenzylamine Libraries Possessing Antileishmial Activity” (Med Chem Res, 2005).

What was measured:
Format in all cases: functional, organism-based
Leishmania donovani = assay: Antileishmanial activity against Leishmania donovani promastigotes after 72 hr by alamar blue assay
Plasmodium falciparum [1] = assay: Antimalarial activity against chloroquine-resistant Plasmodium falciparum W2 IndoChina after 48 hr by parasite LDH assay
Plasmodium falciparum [2] = assay: Antimalarial activity against chloroquine-sensitive Plasmodium falciparum D6 SierraLeone after 48 hr by parasite LDH assay

Row | SMILES | EC50 (Leishmania donovani) | EC50 (Plasmodium falciparum [1]) | EC50 (Plasmodium falciparum [2])
1 | COc1ccc(CN(CCc2ccccc2)CC(=O)OC(C)(C)C)cc1O | 33.6 µM |  | 
2 | COc1ccc(CN(Cc2ccc(Br)cc2)c2cccc(Cl)c2)cc1O | 64.7 µM |  | 
3 | COc1ccc(CN(CCc2ccccc2)Cc2ccc(C)cc2)cc1O | 19.9 µM |  | 
4 | COc1ccc(CN(CCc2ccccc2)Cc2ccc(Cl)c(Cl)c2)cc1O | 50.4 µM |  | 
5 | COc1ccc(CN(CCc2ccccc2)Cc2ccc(OC)c(O)c2)cc1 | 18.8 µM |  | 
6 | COc1ccc(CN(CCc2ccc(Br)cc2)Cc2ccc(Cl)c(Cl)c2)cc1O | 48.5 µM |  | 
7 | COc1ccc(CN(Cc2ccc(OC)c(O)c2)c2ccc(OC)cc2)cc1 | 71.2 µM |  | 
8 | COc1ccc(CN(Cc2ccccc2)c2ccc(Br)cc2)cc1O | 70.3 µM |  | 
9 | COc1ccc(N(Cc2ccc(C(C)(C)C)cc2)Cc2ccc(OC)c(O)c2)cc1 | 61.6 µM |  | 
10 | COc1ccc(CN(CCc2ccc(Br)cc2)CC(=O)OC(C)(C)C)cc1O | 11.1 µM |  | 
11 | CCCCN(CCc1ccc(Br)cc1)Cc1ccc(OC)c(O)c1 | 125 µM | 7.14 µM | 
12 | COc1ccc(CN(CCc2ccc(OC)c(OC)c2)Cc2ccc(Br)cc2)cc1O | 39.1 µM | 9.79 µM | 
13 | COc1ccc(CN(Cc2ccc(Br)cc2)c2ccc(Br)cc2)cc1O | 33.5 µM |  | 
14 | COc1ccc(CN(CCCN2CCOCC2)Cc2ccccc2)cc1O |  | 12.8 µM | 12.8 µM
15 | COc1ccc(N(Cc2ccc(C)cc2)Cc2ccc(OC)c(O)c2)cc1 | 65.1 µM |  | 
16 | COc1ccc(CN(Cc2ccccc2)Cc2ccc(Br)cc2)cc1O | 31.5 µM |  | 
17 | CCOC(=O)CCCN(CCc1ccc(Br)cc1)Cc1ccc(OC)c(O)c1 | 37.8 µM |  | 
18 | COc1ccc(CN(CCCN2CCOCC2)Cc2ccc(Br)cc2)cc1O | 51.2 µM | 10.6 µM | 10.6 µM
19 | COc1ccc(CN(CCc2ccc(Br)cc2)Cc2ccc([N+](=O)[O-])cc2)cc1O | 46.7 µM |  | 9.55 µM
20 | COc1ccc(CN(CCc2ccccc2)Cc2c(F)c(F)c(F)c(F)c2F)cc1O | 48 µM |  | 
21 | COc1ccc(CN(CCc2ccccc2)c2cccnc2)cc1O | 18.5 µM |  | 
22 | COc1ccc(CN(CCc2ccccc2)Cc2cccc(Cl)c2)cc1O | 70.7 µM |  | 

Row | SMILES | EC50 (Leishmania donovani) | EC50 (Plasmodium falciparum [1]) | EC50 (Plasmodium falciparum [2])
23 | COc1ccc(CN(Cc2ccc(Br)cc2)c2cccnc2)cc1O | 32.6 µM |  | 
24 | COc1ccc(CN(CCc2ccc(Br)cc2)Cc2ccc(Cl)cc2)cc1O | 54.2 µM |  | 
25 | COc1ccc(CN(Cc2ccccc2)c2cc(OC)c(OC)c(OC)c2)cc1O | 29.3 µM |  | 
26 | C[C@@H]1CC[C@H]2[C@@H](C)C(=O)O[C@@H]3O[C@@]4(C)CC[C@@H]1[C@]32OO4 [ARTEMISININ] |  | 0.02 µM | 0.02 µM
27 | COc1ccc(CN(CCc2ccc(Br)cc2)Cc2ccc(C)cc2)cc1O | 29.5 µM |  | 
28 | COc1ccc(CN(CCCc2ccccc2)CCc2c[nH]c3ccccc23)cc1O | 9.89 µM |  | 
29 | COc1ccc(CN(Cc2ccccc2)c2cccnc2)cc1O | 53.1 µM |  | 
30 | COc1ccc(CCN(Cc2ccccc2)Cc2ccc(OC)c(O)c2)cc1 | 50.3 µM | 12.6 µM | 12.6 µM
31 | COc1ccc(CN(CCCc2ccccc2)CCc2ccccc2)cc1O | 14.1 µM |  | 
32 | COc1ccc(CN(CCc2ccccc2)CCc2c[nH]c3ccccc23)cc1O | 16.2 µM |  | 
33 | COc1ccc(N(Cc2ccc(Br)cc2)Cc2ccc(OC)c(O)c2)cc1 | 25.8 µM | 11.2 µM | 11.2 µM
34 | COc1ccc(CN(CCc2ccccc2)CCc2ccccc2)cc1O | 20.8 µM |  | 
35 | COc1ccc(CN(CCc2ccc(Br)cc2)Cc2c(F)c(F)c(F)c(F)c2F)cc1O | 50.4 µM |  | 
36 | COc1ccc(CN(CCc2ccc(Br)cc2)Cc2ccc(Br)cc2)cc1O | 11.9 µM | 9.42 µM | 6.93 µM
37 | COc1ccc(CCN(Cc2ccc(Br)cc2)Cc2ccc(OC)c(O)c2)cc1 | 21.9 µM | 10.4 µM | 
38 | COc1ccc(CN(CCc2ccc(Br)cc2)Cc2ccc(OC)c(O)c2)cc1 | 32.9 µM |  | 
39 | COc1ccc(CN(CCCc2ccccc2)CCc2ccc(Br)cc2)cc1O | 28.6 µM |  | 
40 | COc1ccc(CN(CCc2ccccc2)Cc2ccc(Cl)cc2Cl)cc1O | 60.1 µM |  | 
41 | COc1ccc(CN(CCc2ccc(Br)cc2)Cc2ccc(Cl)cc2Cl)cc1O | 48.5 µM |  | 
42 | CCOC(=O)CN(CCc1ccc(Br)cc1)Cc1ccc(OC)c(O)c1 | 26.1 µM |  | 
43 | COc1ccc(CN(CCc2ccccc2)Cc2ccc(F)cc2)cc1O | 62.9 µM |  | 
44 | COc1ccc(CN(Cc2ccccc2)c2cccc(Cl)c2)cc1O | 39.6 µM | 13.5 µM | 13.5 µM

Row | SMILES | EC50 (Leishmania donovani) | EC50 (Plasmodium falciparum [1]) | EC50 (Plasmodium falciparum [2])
45 | COc1ccc(CN(CCc2ccccc2)Cc2ccccc2)cc1O | 37.4 µM |  | 
46 | C[C@@H]1[C@H](O)[C@@H](C)/C=C/C=C/C=C/C=C/C=C/C=C/C=C/[C@H](O[C@@H]2O[C@H](C)[C@@H](O)[C@H](N)[C@@H]2O)C[C@@H]2O[C@](O)(C[C@@H](O)C[C@@H](O)[C@H](O)CC[C@@H](O)C[C@@H](O)CC(=O)O[C@H]1C)C[C@H](O)[C@H]2C(=O)O [AMPHOTERICIN B] | 0.01 µM |  | 
47 | COc1ccc(CN(CCc2ccc(Br)cc2)Cc2ccc(F)cc2)cc1O | 56.3 µM |  | 
48 | CCN(CC)CCCC(C)Nc1ccnc2cc(Cl)ccc12 (centres undefined) [CHLOROQUINE] |  | 0.31 µM | 
49 | COc1ccc(CN(CCc2ccc(Br)cc2)Cc2cccc(Cl)c2)cc1O | 45.6 µM |  | 
50 | COc1ccc(CN(CCc2ccc(OC)c(OC)c2)Cc2ccccc2)cc1O | 54 µM | 11.7 µM | 
51 | COc1ccc(CN(CCc2ccc(Br)cc2)Cc2ccccc2)cc1O | 11.8 µM | 11.2 µM | 6.58 µM
52 | COc1ccc(N(Cc2ccc(F)cc2)Cc2ccc(OC)c(O)c2)cc1 | 84.4 µM |  | 
53 | COc1ccc(CN(CCCc2ccccc2)c2cccnc2)cc1O | 15.8 µM |  | 
54 | COc1ccc(CN(Cc2ccc(Br)cc2)c2cc(OC)c(OC)c(OC)c2)cc1O | 45.1 µM |  | 
55 | COc1ccc(CN(CCc2c[nH]c3ccccc23)Cc2ccc(Br)cc2)cc1O | 9.88 µM |  | 
56 | CCOC(=O)CCCN(CCc1ccccc1)Cc1ccc(OC)c(O)c1 | 25.6 µM |  | 
57 | COc1ccc(CN(CCc2ccccc2)CCc2ccc(Br)cc2)cc1O | 59 µM |  | 
58 | COc1ccc(CN(CCc2ccc(Br)cc2)Cc2ccc(C(C)(C)C)cc2)cc1O | 47.8 µM |  | 
59 | COc1ccc(CN(CCc2c[nH]c3ccccc23)Cc2ccccc2)cc1O | 9.31 µM |  | 
60 | N=C(N)c1ccc(OCCCCCOc2ccc(C(=N)N)cc2)cc1 [PENTAMIDINE] | 1.35 µM |  | 
61 | CCOC(=O)CCN(CCc1ccc(Br)cc1)Cc1ccc(OC)c(O)c1 | 25.2 µM |  | 
62 | COc1ccc(N(Cc2ccc(Cl)cc2)Cc2ccc(OC)c(O)c2)cc1 | 59.8 µM |  | 
63 | COc1ccc(CN(CCc2ccccc2)Cc2ccc(Cl)cc2)cc1O | 68.1 µM |  | 
64 | COc1ccc(N(Cc2ccccc2)Cc2ccc(OC)c(O)c2)cc1 | 109 µM |  | 
65 | COc1ccc(CN(CCc2ccccc2)Cc2ccc(C(C)(C)C)cc2)cc1O | 18.6 µM |  | 
